Test results: patent US11992497B2 (priority 2021, dated 2024)
“Also recorded” adds a separate entry of the source. Read-outs that look alike come from different tables or passages of the source.

Assays:
[1] = target: T1, UGT1A4 (Homo sapiens, UniProt P22310); test: UGT reaction phenotyping, recombinant Supersomes; format: in vitro ADME
T1 construct: purchased BD Biosciences
T1 sequence (P22310 29-534): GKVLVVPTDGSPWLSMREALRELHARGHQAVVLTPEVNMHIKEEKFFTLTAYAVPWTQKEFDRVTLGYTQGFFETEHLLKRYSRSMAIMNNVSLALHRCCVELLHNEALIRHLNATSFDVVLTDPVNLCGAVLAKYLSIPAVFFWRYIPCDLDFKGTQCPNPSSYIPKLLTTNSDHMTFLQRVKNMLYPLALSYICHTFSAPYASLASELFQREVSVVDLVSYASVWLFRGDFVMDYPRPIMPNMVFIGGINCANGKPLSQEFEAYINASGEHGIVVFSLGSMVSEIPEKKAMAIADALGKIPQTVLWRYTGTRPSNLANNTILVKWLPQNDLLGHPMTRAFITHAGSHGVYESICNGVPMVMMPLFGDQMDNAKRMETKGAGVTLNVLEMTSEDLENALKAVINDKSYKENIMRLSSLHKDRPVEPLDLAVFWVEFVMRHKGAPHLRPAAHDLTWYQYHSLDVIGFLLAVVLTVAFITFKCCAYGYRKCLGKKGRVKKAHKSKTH
Source text: Experimental Summary: UGT Reaction Phenotyping (7 Isoforms).

[2] = tested on: lipopolysaccharide (LPS)-induced inflammation; test: Rat LPS model, serum pro-inflammatory cytokines; format: in vivo, Sprague Dawley rats; settings: oral, 4 days; 2 h after LPS
Experimental: This assay was employed to determine the efficacies of CBG, compound 1, and compound 2 against lipopolysaccharide (LPS)-induced inflammation in Sprague Dawley rats.
Eight- to 10-week-old male rats were treated with CBG, Compound 1, and Compound 2, or a positive control (cyclosporin A) for four days prior to treatment with LPS. Twenty-eight (28) Sprague Dawley male rats, 8-10 weeks old, were used for this study. Animals were randomized by weight into one of 7 treatment groups as shown in Table 10 below and treated for 4 days with either vehicle control (Groups 1 and 2), Cyclosporin A (Neoral) (Group 3), CBG at 30 mg/kg (Group 4), Compound 1 at 31.5 mg/kg (Group 5), Compound 2 at 32.7 mg/kg (Group 6) or CBG at 30 mg/kg (intraperitoneal/IP; Group 7). Groups 1-6 were dosed for 4 days by oral gavage; group 7 was dosed for 4 days by IP injection. After the 4th injection, Groups 2-7 received a single IP injection of LPS at 5 mg/kg to induce inflammation. Body weight was recorded every other day starting on the day of or day prior to the first day of treatment. A terminal body weight was recorded. General health and clinical signs were recorded once daily. Blood was collected to isolate immune cells at 2 hours after the LPS injection. […]
Serum samples (N=82) were processed and shipped to Inotiv Boulder for analysis. […] The samples were analyzed for cytokine levels using the RECYTMAG-65K Luminex™ kit. […]

[3] = PK and Tmax of CBD and Compound 3 after IP administration; format: in vivo; settings: male C57BL/6 mice; for Cmax / AUC(0-t): mouse, in vivo; for AUC(0-t): read-out: AUC(0-t) (obs area)
Source text: The purpose of this study was to determine the pharmacokinetics and time of maximum plasma (Tmax) of the test articles (TA) CBD and Compound 3 following intraperitoneal (IP) administration to male C57BL/6 mice. This method of TA delivery, dose and mouse strain was to be used in a subsequent Pentylenetetrazol (PTZ) induced seizure model for the evaluation of the TA's for anti-epileptic activity.

[4] = tested on: PTZ-induced seizure; test: PTZ-induced epilepsy mouse model; format: in vivo; settings: for Latency to Clonic Seizure Event compared to PTZ alone / Latency to First Seizure Event compared to PTZ alone / Latency to Tonic Seizure Event compared to PTZ alone / Percent of animals reaching Tonic-clonic Stage 6 compared to PTZ alone / Racine scores over 5 minute intervals for 30 minutes compared to PTZ alone / Survival Effects: mortality rate compared to the vehicle/PTZ group: PTZ 80 mg/kg, CBD 100 mg/kg 60 minutes prior, Compound 3 100 mg/kg 30 minutes prior to PTZ
Source text: Mouse models using GABAa receptor antagonist Pentylenetetrazol (PTZ) are well defined and used as a standard for the identification of potential anticonvulsants to treat generalized clonic seizures (Loscher et al., 1991 Epilepsy Res 8:171-189). The purpose of this study was to evaluate and compare CBD to test article Compound 3, on their therapeutic effects in a mouse model of PTZ-induced seizure. To match up test article plasma concentration time max (Tmax) with the PTZ induced seizures; test articles were administered at 60 minutes and 30 minutes prior to PTZ administration respectively. Vehicle used for treatment groups was 10% EtOH/10% Tween 80/80% Saline.
Mice were acclimated to the procedure room for at least 30 minutes.
Pentylenetetrazole (PTZ; Sigma Aldrich) was formulated in water to a concentration of 16 mg/mL. Injections of PTZ were made at a volume of 5 mL/kg to produce a final dose of 80 mg/kg. […] A 30- • minute maximum latency to seizure was imposed. • Clinical behavior was scored using the following adapted Racine scale: • Score 0, no seizures observed • Score 1, Behavioral arrest (freezing, fixed gaze, staring), vibrissae twitching, • mouth or facial clonus • Score 2, Pop or jump, straub tail, foot splay, head nodding • Score 3, Forelimb clonus, extended forelimbs, multiple pops or jerks • Score 4, Rearing and bilateral forelimb clonus, Running and running/bouncing • Score 5, All limb clonus, rearing and falling (stay fallen on rear side) • Score 6, Tonic hindlimb extensions, cardiac arrest
Behavior was scored by an observer blind to treatment. The highest score reached during every 5 minute period during the 30 minutes after PTZ was administered was recorded. Additionally, the percent tonic-clonic (number of animals progressing to the highest seizure score), and percent mortality was also calculated.

[5] = tested on: HCT116; test: GI50 by MTS assay; format: cell-based; settings: MTS assay, HCT116, 48 hours
Experimental: For MTS assay, the compounds have been tested at 8 concentrations on 4 colon cancer cell lines for 48 hours. The compounds, concentrations and colon cancer cell line panel tested are the following: • CBG: 0 μM, 1.25 μM, 2.5 μM, 5 μM, 10 μM, 20 μM, 40 μM, and 80 μM. • Compound 1: 0 μM, 1.25 μM, 2.5 μM, 5 μM, 10 μM, 20 μM, 40 μM, and 80 μM. • Compound 2: 0 μM, 1.25 μM, 2.5 μM, 5 μM, 10 μM, 20 μM, 40 μM, and 80 μM. • Colon cancer cell line panel: SW620, HCT15, HT29, HCTl16
Four colon cancer cell lines of SW620, HCT15, HT29, and HCT116 were included in the colon cancer cell line panel.
CBG, compound 1 and compound 2 were dissolved in DMSO at a concentration of 10 mM and stored at −20° C.
Evaluation of DM compounds treatment-induced growth inhibition was performed to determine the GI50 of four colon cancer cell lines with MTS assay or clonogenic assay. Each experiment was repeated in triplicate. In GraphPad Prism, data were log-transformed and fit with a nonlinear curve to calculate the GI50.
MTS assay. cells were plated at 96 well plates at a density of 1,000 cells per well. After 24 hours, cells were treated with DM compounds at increasing concentrations or DMSO vehicle and incubated for 48 hours. 20 μl of MTS reagent (Promega) was then added and incubated for 2 hours. The absorbance was measured with a microplate reader at 490 nm. Each experiment was repeated in triplicate. In GraphPad Prism, data were log-transformed and fit with a nonlinear curve to calculate the GI50.

Structure (SMILES)	Cmax ([3]; plasma, 100 mg/kg IP) [ng/mL]	AUC(0-t) ([3]; plasma, 100 mg/kg IP) [ng·h/mL]	Latency to Clonic Seizure Event compared to PTZ alone [4]	Latency to First Seizure Event compared to PTZ alone [4]	Latency to Tonic Seizure Event compared to PTZ alone [4]	Percent of animals reaching Tonic-clonic Stage 6 compared to PTZ alone [4]	Racine scores over 5 minute intervals for 30 minutes compared to PTZ alone [4]	Survival Effects: mortality rate compared to the vehicle/PTZ group [4]	further results
C[N+]1([C@@H]2O[C@H](C(=O)[O-])[C@@H](O)[C@H](O)[C@H]2O)CCN(CCCN2c3ccccc3Sc3ccc(C(F)(F)F)cc32)CC1 [Trifluoperazine Glucuronide]									average peak area ratio at 60 min/average peak area ratio at 0 min (printed in the half-life column) ([1]; Test Conc. 1 μM): *6.38
CN1CCN(CCCN2c3ccccc3Sc3ccc(C(F)(F)F)cc32)CC1 [Trifluoperazine, trifluoperazine]									microsomal CLint at 1 µM ([1]; human, recombinant UGT1A4 Supersomes, pH 7.4, Test Conc. 1 μM, read-out: Recombinant UGT CLINT Clearance): 0.7 µL/min/mg; half-life at 1 µM ([1]; human, recombinant UGT1A4 Supersomes, pH 7.4, Test Conc. 1 μM, read-out: Recombinant UGT Half Life T1/2): 16.4 h
C=C(C)[C@@H]1CCC(C)=C[C@H]1c1c(O)cc(CCCCC)cc1OC [Compound 3, (1′R,2′R)-6-methoxy-5′-methyl-4-pentyl-2′-(prop-1-en-2-yl)-1′,2′,3′,4′-tetrahydro-[1,1′-biphenyl]-2-ol]	21800	30200	did not yield a significantly different latency; also recorded: strong trend toward longer latency	trended towards a longer latency than PTZ alone, although the difference was not significant	significantly longer latency	significantly lower proportion	significant improvement in Racine scores	significantly reduced mortality rate	reduction of IL-1B and IFNy relative to CBG (in words) [2]: equal to or better than CBG; Cmax relative to CBD ([3]; IP): 8 fold; plasma PK Area Under the Curve (AUC) relative to CBD ([3]; IP): over 4 fold; TMax ([3]; plasma, 100 mg/kg IP): 0.5 h; overall anti-epileptic activity (in words) ([4]; PTZ seizure model): clear anti-epileptic therapeutic activity
CCCCCc1cc(O)c(C/C=C(\C)CCC=C(C)C)c(OC)c1 [Cmpd1]									GI50 ([5]; average of N1-N3, read-out: GI50 AVG): 10.3 µM; GI50 ([5]; replicate N1, read-out: GI50 N1): 10.5 µM; GI50 ([5]; replicate N2, read-out: GI50 N2): 9.96 µM; GI50 ([5]; replicate N3, read-out: GI50 N3): 10.5 µM
C=C(C)[C@@H]1CCC(C)=C[C@H]1c1c(O)cc(CCCCC)cc1O [CBD, cannabidiol, reference compound]	2730	6830	did not yield a significantly different latency	did not result in a difference in latency to first seizure	did not yield a significantly different latency	did not yield a significantly difference in proportion; also recorded: did not yield a significant difference in proportion	did not yield a significant change in clinical score	did not yield a significantly reduced mortality rate	Tmax (in words) ([3]; IP): two separate Tmax peaks
